Results: article PMC8851638 (ACS Omega, 2022)
Converted amounts (≈) assume the structure as drawn. “And” between values parts separate entries of the source, which are not always exact repeats. Identical values can stand only once.

Tests used:
S. aureus (MDR00231) [1] = test: MIC and MBC by broth microdilution; format: cell-based, Staphylococcus aureus
A. baumannii (MDR00521) = test: MIC and MBC by broth microdilution; format: cell-based
[2] = In vitro cytotoxicity on normal cell line; format: cell-based, green monkey; conditions: green monkey, Vero kidney cells
[3] = test system: Vero: green monkey kidney; test: In vitro cytotoxicity on normal cell line; format: cell-based
E. coli (MDR00501) [4] = test: MIC and MBC by broth microdilution; format: cell-based
B. subtilis [5] = test: Single-step resistance selection; format: cell-based; conditions: 4 × MIC, 48 h
S. epidermidis [6] = test: Single-step resistance selection; format: cell-based, Staphylococcus epidermidis; conditions: 4 × MIC, 48 h
C. albicans100 [7] = test: Single-step resistance selection; format: cell-based, Candida albicans; conditions: 4 × MIC, 48 h
C. albicans200 [8] = test: Single-step resistance selection; format: cell-based, Candida albicans; conditions: 4 × MIC, 48 h
C. albicans100 [9] = test: Checkerboard combination assay with Ketoconazole; format: cell-based, Candida albicans
[10] = test system: C. albicans100 (MDR00100); test: Agar well-diffusion antimicrobial sensitivity assay; format: cell-based, Candida albicans; conditions: Candida albicans, read-out: Inhibition Zone (IZ)
S. epidermidis [11] = test: Checkerboard combination assay with Ciprofloxacin; format: cell-based, Staphylococcus epidermidis
[12] = In vitro cytotoxicity on normal cell line; format: cell-based, rat; conditions: rat, H9C2 heart/myocardium cells
[13] = test system: H9C2: rat heart/myocardium; test: In vitro cytotoxicity on normal cell line; format: cell-based
E. coli DNA gyrase = E. coli DNA gyrase (Escherichia coli, UniProt P0AES4+P0AES6); test: DNA gyrase inhibition; format: biochemical
B. subtilis [14] = test: Checkerboard combination assay with Ciprofloxacin; format: cell-based
A. baumannii [15] = test: Checkerboard combination assay with Ciprofloxacin; format: cell-based
B. subtilis (MDR00423) = test: MIC and MBC by broth microdilution; format: cell-based
C. albicans200 [16] = test: Checkerboard combination assay with Ketoconazole; format: cell-based, Candida albicans
E. coli [17] = test: Single-step resistance selection; format: cell-based; conditions: 4 × MIC, 48 h
S. aureus [18] = test: Checkerboard combination assay with Ciprofloxacin; format: cell-based, Staphylococcus aureus
[19] = test system: C. albicans200 (MDR00200); test: Agar well-diffusion antimicrobial sensitivity assay; format: cell-based, Candida albicans; conditions: Candida albicans, read-out: Inhibition Zone (IZ)
S. aureus biofilm = test: Staphylococcus biofilm mass reduction; format: cell-based; conditions: at their MIC
[20] = test system: C. albicans200 (MDR00200); test: MIC and MFC by broth microdilution; format: cell-based, Candida albicans
[21] = In vitro cytotoxicity on normal cell line; format: cell-based, mouse; conditions: mouse, BNL normal liver cells
[22] = test system: BNL: mouse normal liver cells; test: In vitro cytotoxicity on normal cell line; format: cell-based
S. epidermidis biofilm = test: Staphylococcus biofilm mass reduction; format: cell-based; conditions: at their MIC
S. aureus (MDR00231) [23] = test: Agar well-diffusion antimicrobial sensitivity assay; format: cell-based, Staphylococcus aureus; conditions: Staphylococcus aureus, read-out: Inhibition Zone (IZ)
[24] = test system: S. epidermidis (MDR00223); test: MIC and MBC by broth microdilution; format: cell-based, Staphylococcus epidermidis
A. baumannii [25] = test: Single-step resistance selection; format: cell-based; conditions: 4 × MIC, 48 h
K. pneumoniae [26] = test: Single-step resistance selection; format: cell-based; conditions: 4 × MIC, 48 h
S. aureus [27] = test: Single-step resistance selection; format: cell-based, Staphylococcus aureus; conditions: 4 × MIC, 48 h
[28] = test system: C. albicans100 (MDR00100); test: MIC and MFC by broth microdilution; format: cell-based, Candida albicans
K. pneumoniae (MDR00244) = test: MIC and MBC by broth microdilution; format: cell-based; conditions: ratio in parentheses
K. pneumoniae [29] = test: Checkerboard combination assay with Ciprofloxacin; format: cell-based
E. coli (MDR00501) [30] = test: Agar well-diffusion antimicrobial sensitivity assay; format: cell-based; conditions: Escherichia coli, read-out: Inhibition Zone (IZ)
E. coli [31] = test: Checkerboard combination assay with Ciprofloxacin; format: cell-based
RBCs = test: Hemolytic assay; format: cell-based; conditions: human RBCs; compounds 1.0 mg/mL; Triton X-100 0.1% v/v; 37 °C, 35 min
[32] = test system: S. epidermidis (MDR00223); test: Agar well-diffusion antimicrobial sensitivity assay; format: cell-based, Staphylococcus epidermidis; conditions: Staphylococcus epidermidis, read-out: Inhibition Zone (IZ)
[33] = target: T1, dihydrofolate reductase (DHFR) (Homo sapiens, UniProt P00374); test: DHFR inhibition; format: biochemical
T1 sequence (P00374 1-187): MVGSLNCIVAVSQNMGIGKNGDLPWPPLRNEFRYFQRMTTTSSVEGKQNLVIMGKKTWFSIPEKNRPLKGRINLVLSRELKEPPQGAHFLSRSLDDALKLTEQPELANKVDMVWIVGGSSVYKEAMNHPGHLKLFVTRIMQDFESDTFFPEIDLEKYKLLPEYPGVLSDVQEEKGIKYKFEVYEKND

Chain of E. coli DNA gyrase (P0AES4 whole entry, one chain of several): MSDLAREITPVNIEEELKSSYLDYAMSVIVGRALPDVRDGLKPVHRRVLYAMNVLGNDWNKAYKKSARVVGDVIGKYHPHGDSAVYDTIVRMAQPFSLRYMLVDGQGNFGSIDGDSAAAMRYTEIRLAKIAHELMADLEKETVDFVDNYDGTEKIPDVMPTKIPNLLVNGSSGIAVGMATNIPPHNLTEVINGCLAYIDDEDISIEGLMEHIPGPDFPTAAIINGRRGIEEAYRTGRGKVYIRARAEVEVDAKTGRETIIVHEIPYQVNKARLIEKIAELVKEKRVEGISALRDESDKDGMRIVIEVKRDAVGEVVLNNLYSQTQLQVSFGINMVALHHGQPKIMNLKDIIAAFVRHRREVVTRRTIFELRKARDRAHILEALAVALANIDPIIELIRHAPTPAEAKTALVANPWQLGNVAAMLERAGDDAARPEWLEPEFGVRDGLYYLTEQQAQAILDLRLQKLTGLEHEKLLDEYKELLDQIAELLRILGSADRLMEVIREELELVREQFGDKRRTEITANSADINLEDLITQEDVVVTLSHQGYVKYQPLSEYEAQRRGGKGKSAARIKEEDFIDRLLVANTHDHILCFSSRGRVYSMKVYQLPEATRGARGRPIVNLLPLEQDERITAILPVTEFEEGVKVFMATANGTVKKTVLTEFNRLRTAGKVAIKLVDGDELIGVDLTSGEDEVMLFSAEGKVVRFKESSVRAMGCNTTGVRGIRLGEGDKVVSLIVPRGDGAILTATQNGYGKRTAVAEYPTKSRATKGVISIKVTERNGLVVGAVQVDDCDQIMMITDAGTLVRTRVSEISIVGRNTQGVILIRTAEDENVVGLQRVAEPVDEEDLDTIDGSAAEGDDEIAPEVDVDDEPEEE

For N#CC(=Cc1cn(-c2ccccc2)nc1-c1ccccc1)C1=NC(=O)CS1 [Compound 4a, 3-(1,3-Diphenyl-1H-pyrazol-4-yl)-2-(4-oxo-4,5-dihydrothiazol-2-yl)acrylonitrile], the MBC/MIC (S. aureus (MDR00231) [1]; S. aureus, ratio in parentheses) was 0.5, the MIC (S. aureus (MDR00231) [1]; Staphylococcus aureus, read-out: MIC (mean ± SEM), S. aureus, broth microdilution) was 0.43 ± 0.4 µg/mL (≈ 1.16 µM) and the “MIC (mean ± SEM)” value (A. baumannii (MDR00521); broth microdilution) was 0.44 ± 0.3 µg/mL (≈ 1.19 µM). The MBC/MIC (A. baumannii (MDR00521); ratio in parentheses) was 1, the IC50 at 72 h [2] was 86.9 ± 0.97 µM and the “Selectivity index against DHFR” value ([3]; IC50 of Vero / IC50 of DHFR) was 88.70. For the same molecule, the “Selectivity index against DNA gyrase” value ([3]; IC50 of Vero / IC50 of DNA gyrase) was 4.76, the “MIC (mean ± SEM)” value (E. coli (MDR00501) [4]; E. coli, broth microdilution) was 0.45 ± 0.2 µg/mL (≈ 1.21 µM) and the MBC/MIC (E. coli (MDR00501) [4]; E. coli, ratio in parentheses) was 0.5. The MIC (E. coli (MDR00501) [4]; Escherichia coli, read-out: MIC (mean ± SEM), E. coli, broth microdilution) was 0.45 µg/mL (≈ 1.21 µM), the “Single-step resistance frequency (mutation frequency)” value (from here on “Single-step resistance frequency”) (B. subtilis [5]) was 2.20 × 10^–8 and the “Single-step resistance frequency” value (S. epidermidis [6]) was 2.43 × 10^–7. The “Single-step resistance frequency” value (C. albicans100 [7]) was 1.40 × 10^–8, the “Single-step resistance frequency” value (C. albicans200 [8]) was 1.58 × 10^–7 and the combination effect (C. albicans100 [9]) was “S (S: synergism)”. The “fractional inhibitory concentration index (FICI)” value (C. albicans100 [9]) was 0.5, the zone of inhibition at 100000 µg/mL [10] was 29 ± 0.23 mm and the combination effect (S. epidermidis [11]) was “S (S: synergism)”. For the same molecule, the “fractional inhibitory concentration index (FICI)” value (S. epidermidis [11]) was 0.5, the IC50 at 72 h [12] was 103 ± 1.5 µM and the “Selectivity index against DHFR” value ([13]; IC50 of H9C2 / IC50 of DHFR) was 105.40. For the same molecule, the “Selectivity index against DNA gyrase” value ([13]; IC50 of H9C2 / IC50 of DNA gyrase) was 5.66, the IC50 (E. coli DNA gyrase) was 18.2 ± 0.67 µM and the combination effect (B. subtilis [14]) was “S (S: synergism)”. For the same molecule, the “fractional inhibitory concentration index (FICI)” value (B. subtilis [14]) was 0.5, the combination effect (A. baumannii [15]) was “S (S: synergism)” and the “fractional inhibitory concentration index (FICI)” value (A. baumannii [15]) was 0.25. For the same molecule, the MBC/MIC (B. subtilis (MDR00423); B. subtilis, ratio in parentheses) was 0.5, the MIC (B. subtilis (MDR00423); Bacillus subtilis, read-out: MIC (mean ± SEM), B. subtilis, broth microdilution) was 0.45 ± 0.5 µg/mL (≈ 1.21 µM) and the combination effect (C. albicans200 [16]) was “S (S: synergism)”. The “fractional inhibitory concentration index (FICI)” value (C. albicans200 [16]) was 0.5, the “Single-step resistance frequency” value (E. coli [17]) was 1.20 × 10^–9 and the combination effect (S. aureus [18]) was “S (S: synergism)”. The “fractional inhibitory concentration index (FICI)” value (S. aureus [18]) was 0.25, the zone of inhibition at 100000 µg/mL [19] was 31 ± 0.22 mm and the “reduction of biofilm formation” value (S. aureus biofilm) was 74.3%. For the same molecule, the “MIC (mean ± SEM)” value ([20]; C. albicans200, broth microdilution) was 0.22 ± 0.2 µg/mL (≈ 0.594 µM), the MFC/MIC ([20]; C. albicans200, ratio in parentheses) was 0.5 and the MIC ([20]; Candida albicans, read-out: MIC (mean ± SEM), C. albicans200, broth microdilution) was 0.22 µg/mL (≈ 0.594 µM). The IC50 at 72 h [21] was 99.4 ± 1.04 µM, the “Selectivity index against DHFR” value ([22]; IC50 of BNL / IC50 of DHFR) was 101.44 and the “Selectivity index against DNA gyrase” value ([22]; IC50 of BNL / IC50 of DNA gyrase) was 5.44. For the same molecule, the “reduction of biofilm formation” value (S. epidermidis biofilm) was 64.8%, the zone of inhibition at 100000 µg/mL (S. aureus (MDR00231) [23]) was 31 ± 0.18 mm and the MBC/MIC ([24]; S. epidermidis, ratio in parentheses) was 1. The MIC ([24]; Staphylococcus epidermidis, read-out: MIC (mean ± SEM), S. epidermidis, broth microdilution) was 0.48 ± 0.2 µg/mL (≈ 1.3 µM), the “Single-step resistance frequency” value (A. baumannii [25]) was 1.00 × 10^–9 and the “Single-step resistance frequency” value (K. pneumoniae [26]) was 1.54 × 10^–9. For the same molecule, the “Single-step resistance frequency” value (S. aureus [27]) was 1.61 × 10^–7, the “MIC (mean ± SEM)” value ([28]; C. albicans100, broth microdilution) was 0.45 ± 0.3 µg/mL (≈ 1.21 µM) and the MFC/MIC ([28]; C. albicans100, ratio in parentheses) was 1. The MIC ([28]; Candida albicans, read-out: MIC (mean ± SEM), C. albicans100, broth microdilution) was 0.45 µg/mL (≈ 1.21 µM), the MBC/MIC (K. pneumoniae (MDR00244)) was 0.5 and the combination effect (K. pneumoniae [29]) was “S (S: synergism)”. The “fractional inhibitory concentration index (FICI)” value (K. pneumoniae [29]) was 0.5, the zone of inhibition at 100000 µg/mL (E. coli (MDR00501) [30]) was 26 ± 0.33 mm and the combination effect (E. coli [31]) was “S (S: synergism)”. The “fractional inhibitory concentration index (FICI)” value (E. coli [31]) was 0.25, the “%lysis of RBCs” value (RBCs) was 7.55% and 7.55 ± 0.63% and the zone of inhibition at 100000 µg/mL [32] was 28 ± 0.13 mm. For the same molecule, the IC50 [33] was 0.98 ± 0.11 µM.
